The nature of the assay: Speed of silver telluride formation in a silver halide emulsion (Kubelka-Munk reflectivity test). As to conditions: octahedral silver bromide emulsion, 50°C, pH 6.3, pAg 8.3, telluride 1 × 10^-3 mol/mol Ag, reflectivity at 520 nm. The format is physicochemical. As to the method: The speed with which silver telluride is formed in the silver halide emulsion can be determined by the following test.
When a tellurium sensitizer is added in a great amount (e.g., 1 × 10^-3 mol/mol Ag), the silver telluride formed absorbs light beam of the visible region. […] 181 (1966) and ibid., Vol. 16, p. 102 (1968) can be applied for sulfur sensitizers. Therefore, the relative speed at which silver telluride is formed can easily be obtained by the same method as used in determining the amount of silver sulfide formed in a silver halide emulsion from the infinite reflectivity of the emulsion to visible light beams (520 nm) in accordance the Kubelka-Munk formula. […]
An emulsion which contains octahedral silver bromide grains having an average size of 0.5 µm (containing 0.75 mol of AgBr and 80 g of gelatin per kilogram) is maintained at 50°C, while holding pH and pAg at 6.3 and 8.3, respectively. […] Then, the reflectivity (R) of the emulsion to light beams of 520 nm is detected at times by means of a spectrophotometer having an integrating sphere, using the reflectivity of a blank emulsion as reference. Every reflectivity, thus detected, is substituted in the Kubelka-Munk formula, (1-R)^2/2R. The time spend until the value of (1-R)^2/2R becomes 0.01 is measured. The pseudo-first-order reaction rate constant k (min-1) is determined from the time thus measured. […]

In the case of `CC(C)P(=[Te])(C(C)C)C(C)C` [Compound 4, ((i)C3H7)3P = Te], the “pseudo-first-order reaction rate constant k” value is around 7e-05 min⁻¹.
As for `CC(C)CP(=[Te])(CC(C)C)CC(C)C` [Compound 7, ((i)C4H9)3P = Te], the figure is around 0.004 min⁻¹.

(Values after patent publication EP0572662B1, “SILVER HALIDE PHOTOGRAPHIC MATERIAL” (FUJI PHOTO FILM CO., LTD., priority 1991, dated 1993).)
